The values below come from patent US7358236B1 (priority 2002, dated 2008).

The subject of one data set is heart tissue. Nature of the data set: Histopathology of heart tissue after single dose VTA, and protective effect of propranolol. The settings on record: for Heart histopathology with propranolol pretreatment: 2 mg/kg Propranolol Hydrochloride 1 hour prior to CA-4DP 100 mg/kg.
For data set [1] the following is noted: rat, in vivo.
The next data set concerns tumor blood flow. The note with it: cited from earlier work.

Where two headings read alike, the source gives them in different places.

For `CC(C)NCC(O)COc1cccc2ccccc12` (racemic) [propranolol, 1-[ispropylamino]3-[1-napthyloxy]-2-propanol hydrocholoride], where the note is “antihypertensive co-administered with CA-4DP 30 mg/kg i.p., 1 hour after CA-4DP dosing”, the MABP was determined as 80.2 mmHg. For the same molecule, the “Heart Rate” value (antihypertensive co-administered with CA-4DP 30 mg/kg i.p., 1 hour post CA-4DP dosing) is listed as 248.5 bpm. The “Heart histopathology with propranolol pretreatment” value with heart tissue (6 or 24 hours post-treatment) is reported as “no abnormal CA-4DP-related histopathology”; in the data set with heart tissue (4 days), “cardiac tissue remained healthy”.
For “Combretastatin A-4 Disodium Phosphate Prodrug [CA-4DP]”, the “Heart Rate” value (rat, in vivo) was found to be 265.6 bpm. The “Increase of MABP versus control animals” value (rat, in vivo, ip, 30 mg/kg) was determined as 72%. In addition, the MABP (rat, in vivo, ip, 30 mg/kg) was 107.9 mmHg. In data set [1], this molecule gave an MABP stabilized level of 110 mmHg. Besides, the “Blood flow in vital tissues (heart, kidney, small intestine)” value in the data set on tumor blood flow (100 mg/kg, rat) is recorded as “maintained at normal levels”. In addition, the “Reduction in tumor blood flow” value in the data set with tumor blood flow (100 mg/kg, rat) is 100 fold. Further, in the data set on tumor blood flow (almost immediately following administration), the “Mean Arterial Blood Pressure change” value is “substantial but transient increase”. Moreover, the “Histopathological changes in the heart” value in the data set on heart tissue (CA-4DP 100 mg/kg i.v. single dose, overall) was “necrosis and degeneration of cardiac cells in some localized areas”; in the data set on heart tissue (CA-4DP 100 mg/kg i.v., at 6 hours) it was “some blood vessels in the heart tissue were observed dilated”; with heart tissue (CA-4DP 100 mg/kg i.v., at 24 hours), “Inflammation cells infiltrated the heart tissue”; in the data set on heart tissue (CA-4DP 100 mg/kg i.v., at 4 days) it was “loss of striation, fragmentation, a manifestation of necrosis and degeneration”.
